Experiments:
patients with PPD or MDD = assay: Most common TEAEs across clinical trials in PPD or MDD: overall ranges; type: in vivo, human; conditions: 30 or 50 mg (N = 583)
Description: (§1) The majority of patients receiving Compound (1) and experiencing a TEAE reported TEAEs mild and moderate in severity: clinical trial of Example 4 94%, Phase 2 clinical trial conducted by Applicant 100%, previous Phase 3 clinical trial conducted by Applicant 98%, and clinical trial of Example 1 95.0%.

patients with MDD = assay: Phase 3 clinical trial of Compound (1) 30 mg in MDD : TEAEs; type: in vivo, human; conditions: previous Phase 3 clinical trial
Description: The study design and results, if applicable, of the clinical trials identified by the NCT numbers are each incorporated by reference herein in its entirety.
as §1

C[C@@]1(O)CC[C@H]2[C@H](CC[C@@H]3[C@@H]2CC[C@]2(C)[C@@H](C(=O)Cn4cc(C#N)cn4)CC[C@@H]32)C1 [Compound (1), 1-(2-((3R,5R,8R,9R,10S,13S,14S,17S)-3-hydroxy-3,13-dimethylhexadecahydro-1H-cyclopenta[a]phenanthren-17-yl)-2-oxoethyl)-1H-pyrazole-4-carbonitrile]
Any TEAE, overall range across trials (patients with PPD or MDD): 53.3-60.3%
Diarrhea, overall range across trials (patients with PPD or MDD): 0-6.4%
Dizziness, overall range across trials (patients with PPD or MDD): 5.7-13.8%
Fatigue, overall range across trials (patients with PPD or MDD): 1.1-6.8%
Headache, overall range across trials (patients with PPD or MDD): 6.3-17.8%
Nausea, overall range across trials (patients with PPD or MDD): 3.6-11.1%
Sedation, overall range across trials (patients with PPD or MDD): 4.4-7.5%
Somnolence, overall range across trials (patients with PPD or MDD): 6.7-15.4%
URTI, overall range across trials (patients with PPD or MDD): 0-7.7%
Patients with a TEAE whose TEAEs were mild and moderate in severity (patients with MDD): 98%
